Assay results from US20240342201A1, “ASYMMETRIC GPR84 ANTAGONIST AND USE THEREOF” (priority 2021, published 2024).
Like-named read-outs stand apart in the source and are kept apart here.

Molecular target: GPR84 (Homo sapiens, UniProt Q9NQS5)
Assay: GPR84 antagonistic activity, calcium flux (Fluo-4) assay with agonist 6-OAU
Type: cell-based
Set-up: expressed in transfected cells; host or cells: HEK293
Experimental: The human GPR84 cell line was obtained by transfecting a HEK293 cell line with a plasmid encoding GPR84 and Gα16 proteins. Fluorescent dye Fluo-4AM was purchased from Invitrogen.
Intracellular Ca^2+ ion is a very important second messenger of G protein-coupled receptor signaling pathway. […] Fluo-4 is a Ca^2+ ion-specific fluorescent probe that binds quantitatively to Ca^2+ ions and emits fluorescence.
Detection of receptor inhibitory effect by GPR84 antagonist: After incubated with fluorescent dye Fluo-4, GPR84 cells were incubated with different concentrations of antagonistic compounds for a period of time to occupy the binding site of agonist to GPR84 (antagonistic binding site). A certain concentration of agonist (6-n-octylaminouracil, 6-OAU) was added to compete with the antagonist compound for binding sites. […] The half-inhibitory concentration (IC50) of the compound was calculated by using GraphPad PRISM software.
The above ingredients were weighed and dissolved in ultrapure water. pH was adjusted to 7.4 by using hydrochloric acid or NaOH solution. The mixture was filtered and stored at 4° C. for one month.
The buffer was prepared on site.
The cells were seeded in a 96-well plate at a density of 4×10^4 cells/well. After 24 hours of culture, the culture medium was removed, and 40 μL of Fluo-4AM fluorescent staining solution was added to each well and incubated in a 37° C. incubator for 40 minutes. After the dye was aspirated and discarded, 50 μL of the tested compound was added and incubated at room temperature for 10 minutes.

[1] = IC50, HEK293 cells with GPR84 and Gα16, Fluo-4 calcium signal, agonist 6-OAU around EC80

Sequence of GPR84 (Q9NQS5 whole entry): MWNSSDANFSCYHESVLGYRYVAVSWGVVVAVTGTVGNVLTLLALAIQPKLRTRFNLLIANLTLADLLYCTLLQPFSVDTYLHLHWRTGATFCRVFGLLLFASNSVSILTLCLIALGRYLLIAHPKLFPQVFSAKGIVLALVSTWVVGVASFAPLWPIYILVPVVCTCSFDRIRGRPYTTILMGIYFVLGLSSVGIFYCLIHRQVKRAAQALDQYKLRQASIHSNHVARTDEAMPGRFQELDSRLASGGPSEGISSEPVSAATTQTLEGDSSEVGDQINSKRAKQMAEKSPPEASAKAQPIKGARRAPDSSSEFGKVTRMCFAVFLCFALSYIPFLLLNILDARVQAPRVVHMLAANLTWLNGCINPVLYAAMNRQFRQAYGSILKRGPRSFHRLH

Row | SMILES | IC50 [1] | IC50 | other results
1 | CC1(C)[C@@H]2CC[C@@]1(C)[C@H](OP(=O)(O)OC1=Cc3c(Cl)cccc3Sc3ccccc31)C2 (racemic) [LSX476b] | < 100 nM | – | –
2 | CC1(C)[C@H]2CC[C@]1(C)[C@H](OP(=O)(O)OC1=Cc3c(Cl)cccc3Sc3ccccc31)C2 (racemic) [LSX476d] | 100 to 1000 nM | – | –
3 | COc1cccc2c1Sc1ccccc1C=C2OP(=O)(O)OC [LSX350] | 1000 to 10000 nM | – | –
4 | COc1cccc2c1Sc1ccccc1C=C2OP(=O)(O)OC1CCOC1 (stereo not shown) [LSX406] | – | 1000 to 10000 nM | –
5 | CCCCCCOP(=O)(O)OC1=Cc2ccccc2Sc2c(OC)cccc21 [LSX420-3] | 100 to 1000 nM | – | –
6 | CC1(C)[C@@H]2CC[C@@](C)(C2)[C@@H]1OP(=O)(O)OC1=Cc2ccccc2Oc2ccccc21 [LSX426j] | 1000 to 10000 nM | – | –
7 | COc1cccc2c1Sc1ccccc1C=C2OP(=O)(O)Oc1ccc(F)cc1 [LSX430] | – | 1000 to 10000 nM | –
8 | COc1cccc2c1Sc1ccccc1C=C2OP(=O)(O)N1CCC(C)(C)CC1 [LSX431] | – | – | IC50 (HEK293 cells with GPR84 and Gα16, Fluo-4 calcium signal, agonist 6-OAU around EC80, read-out: IC50): 1000 to 10000 nM
9 | COc1cccc2c1Sc1ccccc1C=C2OP(=O)(O)OC1CCCCC1C (stereo not shown) [LSX432-2a] | 1000 to 10000 nM | – | –
10 | COc1cccc2c1Sc1ccccc1C=C2OP(=O)(O)OC1CCC(C)CC1 (stereo not shown) [LSX432-2c] | 1000 to 10000 nM | – | –
11 | CCCCCCCCP(=O)(O)OC1=Cc2ccccc2Sc2c(OC)cccc21 [LSX432] | – | 100 to 1000 nM | –
12 | COc1cccc2c1Sc1ccccc1C=C2OP(=O)(O)OC1COC(C)(C)C1 (stereo not shown) [LSX434-2] | – | – | IC50 (read-out: IC50): 1000 to 10000 nM
13 | COc1cccc2c1Sc1ccccc1C=C2OP(=O)(O)OCCc1ccccc1 [LSX440] | 1000 to 10000 nM | – | –
14 | COc1ccc(OP(=O)(O)OC2=Cc3ccccc3Sc3c(OC)cccc32)cc1 [LSX442] | – | 100 to 1000 nM | –
15 | CC1(C)[C@H]2CC[C@]1(C)[C@H](OP(=O)(O)OC1=Cc3ccccc3Sc3ccccc31)C2 [LSX442a] | 100 to 1000 nM | – | –
16 | CC1(C)[C@@H]2CC[C@@](C)(C2)[C@@H]1OP(=O)(O)OC1=Cc2ccccc2Sc2ccccc21 [LSX442j] | 1000 to 10000 nM | – | –
17 | COc1cccc2c1Sc1ccccc1C=C2OP(=O)(O)OCC1CC2CCC1C2 (stereo not shown) [LSX444-2] | 100 to 1000 nM | – | –
18 | COc1cccc2c1Sc1ccccc1C=C2OP(=O)(O)OC1C(C)CCCC1C (stereo not shown) [LSX446-2] | 1000 to 10000 nM | – | –
19 | CC/C=C\CCCCOP(=O)(O)OC1=Cc2ccccc2Sc2c(OC)cccc21 [LSX446] | 100 to 1000 nM | – | –
20 | CCCCCCCCOP(=O)(O)OC1=Cc2c(Cl)cccc2Sc2ccccc21 [LSX452] | 100 to 1000 nM | – | –

Row | SMILES | IC50 [1] | IC50 | other results
21 | COc1cccc2c1Sc1ccccc1C=C2OP(=O)(O)Oc1ccccc1C(C)C [LSX454] | – | 1000 to 10000 nM | –
22 | COc1cccc2c1Oc1ccccc1C=C2OP(=O)(O)O[C@@H]1C(C)(C)[C@@H]2CC[C@@]1(C)C2 [LSX456j] | 1000 to 10000 nM | – | –
23 | COc1cccc2c1Sc1ccccc1C=C2OP(=O)(O)Oc1ccc([N+](=O)[O-])cc1 [LSX457] | – | 1000 to 10000 nM | –
24 | CC1(C)[C@H]2CC[C@]1(C)[C@H](OP(=O)(O)OC1=Cc3c(F)cccc3Sc3ccccc31)C2 [LSX460a] | 100 to 1000 nM | – | –
25 | CC1(C)[C@@H]2CC[C@@](C)(C2)[C@@H]1OP(=O)(O)OC1=Cc2c(F)cccc2Sc2ccccc21 [LSX460j] | 100 to 1000 nM | – | –
26 | CCCCCCCCCOP(=O)(O)OC1=Cc2ccccc2Sc2c(OC)cccc21 [LSX462-3] | 100 to 1000 nM | – | –
27 | COc1cccc2c1Sc1ccccc1C=C2OP(=O)(O)Oc1cccc2ccccc12 [LSX462a] | – | 100 to 1000 nM | –
28 | COc1cccc2c1Sc1ccccc1C=C2OP(=O)(O)Oc1ccc2ccccc2c1 [LSX462b] | – | 100 to 1000 nM | –
29 | COc1cccc2c1Sc1ccccc1C=C2OP(=O)(O)OCCCCCCCCF [LSX466] | 1000 to 10000 nM | – | –
30 | COc1cccc2c1Sc1ccccc1C=C2OP(=O)(O)Oc1cc(C)ccc1C(C)C [LSX468a] | – | 100 to 1000 nM | –
31 | COc1cccc2c1Sc1ccccc1C=C2OP(=O)(O)Oc1cc(C(C)C)ccc1C [LSX468b] | – | 100 to 1000 nM | –
32 | COc1cccc2c1Sc1ccccc1C=C2OP(=O)(O)OC12CC3CC(CC(C3)C1)C2 [LSX470a] | 100 to 1000 nM | – | –
33 | COc1cccc2c1Sc1ccccc1C=C2OP(=O)(O)OC1C2CC3CC(C2)CC1C3 (stereo not shown) [LSX470b] | 100 to 1000 nM | – | –
34 | COc1cccc2c1Sc1ccccc1C=C2OP(=O)(O)OC1CCC(C(C)(C)C)CC1 (stereo not shown) [LSX474-2] | 100 to 1000 nM | – | –
35 | COc1cccc2c1Sc1ccccc1C=C2OP(=O)(O)OC1C(C)(C)CCCC1(C)C [LSX474-3] | 100 to 1000 nM | – | –
36 | COc1cccc2c1Sc1ccccc1C=C2OP(=O)(O)O[C@@H]1C[C@H](C)CC[C@H]1C(C)C [LSX474a] | < 100 nM | – | –
37 | COc1cccc2c1Sc1ccccc1C=C2OP(=O)(O)O[C@H]1C[C@@H](C)CC[C@@H]1C(C)C [LSX474b] | < 100 nM | – | –
38 | CC1(C)[C@H]2CC[C@]1(C)[C@H](OP(=O)(O)OC1=Cc3c(Cl)cccc3Sc3ccccc31)C2 [LSX476a] | < 100 nM | – | –
39 | CC1(C)[C@@H]2CC[C@@]1(C)[C@@H](OP(=O)(O)OC1=Cc3c(Cl)cccc3Sc3ccccc31)C2 [LSX476c] | 100 to 1000 nM | – | –
40 | CC1(C)[C@@H]2CC[C@@]1(C)[C@H](OP(=O)(O)OC1=Cc3c(Cl)cccc3Sc3ccccc31)C2 [LSX476g] | – | – | IC50 (HEK293 cells with GPR84 and Gα16, Fluo-4 calcium signal, agonist 6-OAU around EC80): < 100 nM

Row | SMILES | IC50 [1] | IC50 | other results
41 | CC1(C)[C@H]2CC[C@]1(C)[C@@H](OP(=O)(O)OC1=Cc3c(Cl)cccc3Sc3ccccc31)C2 [LSX476h] | 100 to 1000 nM | – | –
42 | COc1cccc2c1Sc1ccccc1C=C2OP(=O)(O)Oc1cc(Cl)ccc1Cl [LSX480] | – | 100 to 1000 nM | –
43 | CCCCCc1ccccc1OP(=O)(O)OC1=Cc2ccccc2Sc2c(OC)cccc21 [LSX482a] | – | 100 to 1000 nM | –
44 | CCCCCc1cccc(OP(=O)(O)OC2=Cc3ccccc3Sc3c(OC)cccc32)c1 [LSX482b] | – | < 100 nM | –
45 | CCCCCc1ccc(OP(=O)(O)OC2=Cc3ccccc3Sc3c(OC)cccc32)cc1 [LSX482c] | – | 100 to 1000 nM | –
46 | COc1cccc2c1Sc1ccccc1C=C2OP(=O)(O)Oc1ccc(Br)cc1 [LSX491a] | – | 100 to 1000 nM | –
47 | COC(=O)CCCCCCCOP(=O)(O)OC1=Cc2ccccc2Sc2c(OC)cccc21 [LSX492] | 1000 to 10000 nM | – | –
48 | COc1cccc2c1Sc1ccccc1C=C2OP(=O)(O)Oc1c(C(C)C)cccc1C(C)C [LSX496] | – | 1000 to 10000 nM | –
49 | COc1cccc2c1Sc1ccccc1C=C2OP(=O)(O)OC12CC3CC(C)(CC(C)(C3)C1)C2 [LSX498] | 100 to 1000 nM | – | –
50 | COc1cccc2c1Sc1ccccc1C=C2OP(=O)(O)Oc1ccc(Oc2ccccc2)cc1 [LSX504] | – | 1000 to 10000 nM | –
51 | CC1(C)[C@H]2CC[C@]1(C)[C@H](OP(=O)(O)OC1=Cc3ccccc3Sc3c(OC(F)(F)F)cccc31)C2 [LSX526a] | 100 to 1000 nM | – | –
52 | CC1(C)[C@@H]2CC[C@@](C)(C2)[C@@H]1OP(=O)(O)OC1=Cc2ccccc2Sc2c(OC(F)(F)F)cccc21 [LSX526j] | < 100 nM | – | –
53 | COc1cccc2c1Sc1ccccc1C=C2OP(=O)(O)OCCCCCCCCBr [LSX527] | 100 to 1000 nM | – | –
54 | CC1CC(C(C)(C)C)C(OP(=O)(O)OC2=Cc3c(Cl)cccc3Sc3ccccc32)C(C(C)(C)C)C1 (stereo not shown) [LSX548] | 1000 to 10000 nM | – | –
55 | CCCCCc1cc(CCCCC)cc(OP(=O)(O)OC2=Cc3ccccc3Sc3c(OC)cccc32)c1 [LSX552] | – | 100 to 1000 nM | –
56 | COc1cccc2c1Sc1ccccc1C=C2OP(=O)(O)OC12CC3CC(C1)C(Nc1ncnc4[nH]ccc14)C(C3)C2 (stereo not shown) [LSX602] | < 100 nM | – | –
57 | COc1cccc2c1Sc1ccccc1C=C2OP(=O)(O)OC12CC3CC(C1)C(Nc1c(C(N)=O)cnc4[nH]ccc14)C(C3)C2 (stereo not shown) [LSX644] | 1000 to 10000 nM | – | –
58 | COc1cccc2c1Sc1ccccc1C=C2OP(=O)(O)O[C@@H]1CC[C@@]2(C)C(CC[C@H]3[C@@H]4CC[C@H]([C@H](C)CCC(=O)O)[C@@]4(C)CC[C@@H]32)C1 (stereo partly shown) [LSX694] | 100 to 1000 nM | – | –
